According to US5288716A, “Use of pyridoxine derivatives in the prevention and treatment of hyperlipidaemia and atherosclerosis” (priority 1987, dated 1994):
Counter-ions that a name gives are not always drawn.

What was measured:
[1] = Tolerance of vitamin B6 and two derivatives in mice after a single oral dose of 5 g; settings: mouse, in vivo, 5000 mg, single oral dose of 5 g, read-out: % death
Description: 3. Tolerance of vitamin B6 and two derivatives in mice after a single oral dose of 5 g

[2] = test system: lipid metabolism; experiment: Pyridoxine in rats (own experiments, with a positive control); assay type: in vivo; settings: 79 mg/kg body weight
Description: This was explicitly queried in DE 24 61 742 C2 (column 3, lines 35 ff). […] Pyridoxine was used separately in earlier experiments on animals in conjunction with lipid metabolism (see Frolova, J. A.: Vitamin B6 and lipid metabolism; Vopr. med. Khim. 89, 18. 339-346 (1972)). Its effect, however, is weak.

[3] = test system: lipid metabolism; settings: earlier experiments on animals; cited from earlier work
[4] = test system: serum lipids; experiment: Effect of vitamin B6 and a derivative thereof on serum lipids in rats after 12 weeks of treatment; assay type: in vivo; settings: diet 2.5% cholesterol plus 0.25% cholic acid, 79 mg pyridoxine/kg or equimolar dose
Experimental: 1. Effect of vitamin B6 and a derivative thereof on serum lipids in rats after 12 weeks of treatment
Group A=rats fed with normal diet without cholesterol
Group B=rats fed with a diet containing 2.5% cholesterol plus 0.25% cholic acid
Group C=as group (B) plus 79 mg pyridoxine/kg bodyweight
Group D=as group (B) plus an equimolar (to pyridoxine) dose of a pyridoxamine derivative
20 animals per group; means ±SD; difference to group B in %

[5] = test system: aortae of the rabbits from the heart to the bifurcation; experiment: Aorta changes in hyperlipaemic rabbits after 10 weeks of treatment (120 mg/kg), relative to non-treated rabbits; assay type: in vivo
Experimental: The values are mean values of 18 rabbits and measured relative to a basis of non-treated rabbits.
The control group received a diet comprising 2% of cholesterol. In the group under treatment each rabbit received additionally 120 mg pyridoxamine.2 HCl/kg body weight. At the end of the test the aortae of the rabbits from the heart to the bifurcation were prepared and examined: […]

[6] = test system: aorta of rabbits; experiment: Effect of vitamin B6 and the equimolar dose of a derivative thereof on the calcium and lipid content of the aorta of rabbits after 10 weeks; assay type: in vivo; settings: control diet 2% cholesterol, pyridoxamine 2HCl 78 mg/kg, pyridoxine HCl 62 mg/kg
Description: 2. Effect of vitamin B6 and the equimolar dose of a derivative thereof on the calcium and lipid content of the aorta of rabbits after 10 weeks of treatment as compared to a control group fed with a diet containing 2% cholesterol

[7] = 2% cholesterol diet, 120 mg/kg body weight, 10 weeks, mean of 18, relative to non-treated

Structure (SMILES)	mortality [1] [%]	calcium in aorta, % difference to control [6]	cholesterol in aorta, % difference to control [6] [%]	dry weight of aorta, % difference to control [6] [%]	total lipids in aorta, % difference to control [6] [%]	triglycerides in aorta, % difference to control [6]	also measured
Cc1ncc(CO)c(C=O)c1O [Pyridoxal]	100	–	–	–	–	–	–
Cc1ncc(CO)c(CN)c1O [Pyridoxamine]	0	–	–	–	–	–	–
Cc1ncc(CO)c(CO)c1O [Pyridoxine]	30	–	–	–	–	–	effect in rats [2]: ineffective; effect on lipid metabolism [3]: weak; LDL + VLDL-Cholesterol, difference to group B [4]: -10%; Total serum cholesterol, difference to group B [4]: -4%; LDL + VLDL-Cholesterol ([4]; mean (SD in next line)): 150; Total serum cholesterol ([4]; mean (SD in next line)): 204
Cc1ncc(CO)c(CN)c1O [pyridoxamine.2 HCl]	–	-24%	-21	-7	-15	-15%	decrease of calcium in aorta [5, 7]: 31%; decrease of cholesterol in aorta [5, 7]: 27%; decrease of lipids (total) in aorta [5, 7]: 18%; decrease of triglycerides in aorta [5, 7]: 17%; decrease of changes characteristic for atherosclerosis (thickening of the walls, lipid- and calcium uptake) ([5]; after 10 weeks): substantial decrease
Cc1ncc(CO)c(CO)c1O [pyridoxine · HCl]	–	+21%	-2	-1	-3	+6%	–
